Assay: Storage stability of the rapamycin derivative (bulk, in glass bottle), percent residual by HPLC
Format: physicochemical
Procedure: A biologically/physiologically active substance and a deoxidant were placed and sealed within a package. After stored at 40° C. for four weeks, the remaining amount of the biologically/physiologically active substance was measured by high speed liquid chromatography (HPLC) to determine its percent residue.
Biologically/physiologically active substance: A rapamycin derivative represented by the following chemical formula (I) (product of Nippon Kayaku Co., Ltd.). An aliquot (0.03 g) of the rapamycin derivative was placed in a glass bottle, and further, the glass bottle was placed within the below-described package.
Deoxidant: “ZH-100” (product of Mitsubishi Gas Chemical Co, Inc.). Two bags, the volume of each bag being sufficient for 100 mL, were placed and sealed within the package.
Package: An aluminum pouch in the form of a bag of a size of 300 mm in length, 300 mm in width and 0.1 mm in thickness, which was formed of a stacked structure of polyethylene terephthalate, low-density polyethylene, an aluminum film, low-density polyethylene and high-density polyethylene as materials.
After stored in the above-described state at 40° C. for four weeks, the biologically/physiologically active substance was taken out of the package and was provided as “Sample A1” for HPLC. […]
By the following equation, the percent residual of the rapamycin derivative in Sample A1 was determined. […]

Compound	Percent residual (%) (stored in air at 40° C. for four weeks)	Percent residual (%) (sealed with deoxidant ZH-100 in aluminum pouch, stored at 40° C. for four weeks)
CCOCCOC1CCC(CC(C)C2CC(=O)C(C)C(O)C(C)C(O)C(OC)C(=O)C(C)CC(C)/C=C/C=C/C=C(\C)C(OC)CC3CCC(C)C(O)(O3)C(O)C(=O)N3CCCCC3C(=O)O2)CC1OC (centres unmarked) [Comparative Example 1]	18.2	–
CCOCCOC1CCC(CC(C)C2CC(=O)C(C)C(O)C(C)C(O)C(OC)C(=O)C(C)CC(C)/C=C/C=C/C=C(\C)C(OC)CC3CCC(C)C(O)(O3)C(O)C(=O)N3CCCCC3C(=O)O2)CC1OC (centres unmarked) [Example 1]	–	97.3

Reference: patent US20090054971A1, “DRUG ELUTING STENT SYSTEM AND MANUFACTURING PROCESS OF DRUG ELUTING STENT SYSTEM” (TERUMO KABUSHIKI KAISHA, priority 2005, published 2009)
